We go through 7 compounds from patent US4740233A, “Substituted 1,2,4-triazolo[1,5-a]-pyrimidine-2-sulfonamides and compositions and methods of controlling undesired vegetation and suppressing the nitrification of ammonium nitrogen in soil” (The Dow Chemical Company, priority 1986, dated 1988).

The test system of one test is cotton. Put plainly: Postemergent control of plant species. As to conditions: Gossypium hirsutum, post-emergence, 336 h, read-out: percent postemergent control. The format is in vivo, Gossypium spp. The method, boiled down:
(§1)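 Each compound is dissolved in acetone, mixed with an equal volume of 0.1% surfactant water, and sprayed on plants grown to 2-4 leaves in nutrient soil. Treated and untreated beds sit under identical greenhouse temperature and light for roughly two weeks before growth reduction is rated.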

Test [1] relates to sugar beet. Put plainly: Postemergent control of plant species. In kind it is in vivo, Beta saccharifera. To be noted: Beta vulgaris, post-emergence, 336 h, read-out: percent postemergent control. An outline of the steps:
as §1

Another test deals with corn. Nature of the test: Postemergent control of plant species. As to conditions: Zea mays, post-emergence, 336 h, read-out: percent postemergent control. In kind it is in vivo, Zea mays. The method, boiled down: as §1
Test [2] has as its system sorghum. Put plainly: Postemergent control of plant species. In kind it is in vivo, Sorghum vulgare. As to conditions: Sorghum, post-emergence, 336 h, read-out: percent postemergent control. An outline of the steps:
as §1

The subject of a further test is wild oats. Nature of the test: Postemergent control of plant species. In kind it is in vivo, Avena fatua. To be noted: Avena fatua, post-emergence, 336 h, read-out: percent postemergent control. The method, boiled down: as §1
Another test has as its system rape. Nature of the test: Preemergent control of plant species. To be noted: Brassica napus, pre-emergence, 336 h; 0.25 lb/acre; read-out: percent preemergent control. In kind it is in vivo, Brassica napus. An outline of the steps:
(§2)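 Preemergent application of aqueous emulsions at rates given in the table, uniformly over seeded greenhouse soil. Untreated (water) beds as comparison; rating after 2 weeks as reduction in growth.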

Test [3] relates to sugar beet. Put plainly: Preemergent control of plant species. As to conditions: Beta vulgaris, pre-emergence, 336 h; 0.25 lb/acre; read-out: percent preemergent control. In kind it is in vivo, Beta saccharifera. The method, boiled down: as §2
In a further test the test system is jimsonweed. Put plainly: Preemergent control of plant species. The format is in vivo, Datura stramonium. To be noted: Datura stramonium, pre-emergence, 336 h; 0.25 lb/acre; read-out: percent preemergent control. An outline of the steps: as §2
In the next test the test system is velvetleaf. Put plainly: Preemergent control of plant species. As to conditions: Abutilon theophrasti, pre-emergence, 336 h; 0.25 lb/acre; read-out: percent preemergent control. The format is in vivo, Abutilon theophrasti. An outline of the steps:
as §2

Test [4] concerns rice. Nature of the test: Preemergent control of plant species. To be noted: Oryza sativa, pre-emergence, 336 h; 0.25 lb/acre; read-out: percent preemergent control. The format is in vivo, Oryza sativa. An outline of the steps:
as §2

In test [5] the test system is barnyardgrass. Put plainly: Preemergent control of plant species. In kind it is in vivo, Echinochloa crusgalli. As to conditions: Echinochloa crus-galli, pre-emergence, 336 h; 0.25 lb/acre; read-out: percent preemergent control. The method, boiled down:
as §2

Test [6] relates to yellow nutsedge. Nature of the test: Preemergent control of plant species. The format is in vivo, Cyperus esculentus. To be noted: Cyperus, pre-emergence, 336 h; 0.25 lb/acre; read-out: percent preemergent control. An outline of the steps:
as §2

For the next test, the system named is pigweed. Nature of the test: Preemergent control of plant species. As to conditions: Amaranthus retroflexus, pre-emergence, 336 h; 0.25 lb/acre; read-out: percent preemergent control. The format is in vivo, Amaranthus spp. An outline of the steps: as §2
The test system of test [7] is sorghum. Put plainly: Preemergent control of plant species. As to conditions: Sorghum, pre-emergence, 336 h; 0.25 lb/acre; read-out: percent preemergent control. In kind it is in vivo, Sorghum vulgare. The method, boiled down: as §2
For test [8], the system named is rice. Put plainly: Control of aquatic plant species (paddy water). The format is in vivo, Oryza sativa. To be noted: Oryza sativa, 216 h, nine days, read-out: Percent control; for pest or weed control at 1000 g/ha: 1.0 Kg/Ha. An outline of the steps: (§3)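 First, young plants (1-2 inch stage) were set into about 2 inches of soil. Next, pots were flooded to about 1 inch depth. Then acetone concentrate was injected into the water at varying volumes to give the intended concentration. Finally, control was assessed after nine days.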

The subject of test [9] is barnyardgrass. Nature of the test: Control of aquatic plant species (paddy water). In kind it is in vivo, Echinochloa crusgalli. As to conditions: Echinochloa crus-galli, 216 h, nine days, read-out: Percent control; for pest or weed control at 1000 g/ha: 1.0 Kg/Ha. On the procedure: In testing for such utility, the plant species to be tested were transplanted into 16 oz. containers into about 2 inches of soil when they were in the 1-2 inch stage and then flooded to a depth of about 1 inch. An acetone concentrate of the chemical to be tested was then injected into the paddy water, the volume injected being varied as desired to provide the desired concentration. Percent control was evaluated nine days after application.

The test system of a further test is sprangletop. Put plainly: Control of aquatic plant species (paddy water). As to conditions: Leptochloa filiformis, 216 h, nine days, read-out: Percent control; for pest or weed control at 1000 g/ha: 1.0 Kg/Ha. In kind it is in vivo, Leptochloa filiformis. An outline of the steps:
as §3

Test [10] relates to yellow nutsedge. Nature of the test: Control of aquatic plant species (paddy water). In kind it is in vivo, Cyperus esculentus. To be noted: Cyperus, 216 h, nine days, read-out: Percent control; for pest or weed control at 1000 g/ha: 1.0 Kg/Ha. An outline of the steps:
as §3

For test [11], the system named is annual sugar beet variety (SLC03). Nature of the test: Plant growth regulator activity, postemergence. The format is in vivo. To be noted: Beta vulgaris, post-emergence, 672 h, 4 weeks after spraying; read-out: Bolting Inhibition (postemergence), concentration with observed effect. An outline of the steps: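 An annual inbred sugar beet (SLC03), bolting at the 6-8 leaf stage without vernalization, was grown in greenhouse pots. At 2-3 weeks (2 true leaves), plants were sprayed with compounds in 20% acetone and 0.05% Tween 20 in water. Bolting was scored 4 weeks after spraying.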

Consider `CC(=O)N(c1c(Cl)cccc1Cl)S(=O)(=O)c1nc2nc(C)cc(C)n2n1` [Compound 262], for which the plant injury at 500 ppm with cotton was determined as 100%; in the test with sugar beet [1], 100%; in the test with corn, 50%; with sorghum [2], 90%. Moreover, the pest or weed control at 500 ppm with wild oats was determined as 0%. Moreover, the plant injury at 280.212 g/ha was found to be 100% in the test with rape, 100% in the test with sugar beet [3] and 95% in the test with rice [4]. Moreover, the pest or weed control at 280.212 g/ha in the test on jimsonweed is 100%; with velvetleaf it was 100%; in the test with barnyardgrass [5], 90%; with yellow nutsedge [6], 100%.
`Cc1cc(C)n2nc(S(=O)(=O)Nc3ccccc3I)nc2n1` [Compound 6]: the plant injury at 500 ppm with cotton was 60%; in the test on sugar beet [1], 90%; with corn, 0%; in the test on sorghum [2], 80%. In addition, in the test with wild oats, the pest or weed control at 500 ppm came to 0%. Also, the plant injury at 280.212 g/ha came to 100% with rape, 95% in the test on sugar beet [3], 80% in the test with rice [4] and 50% with sorghum [7]. The pest or weed control at 280.212 g/ha in the test on jimsonweed amounted to 0%; in the test with pigweed, 100%; in the test on velvetleaf, 60%; in the test on barnyardgrass [5], 80%; with yellow nutsedge [6] it was 50%. In addition, the pest or weed control at 1000 g/ha in the test on rice [8] was 93%; with barnyardgrass [9], 99%; with sprangletop it was 20%; in the test on yellow nutsedge [10] it was 90%.
Take `Cc1cc(C)n2nc(S(=O)(=O)Nc3ccc(Cl)cc3C(F)(F)F)nc2n1` [Compound 34]: the plant injury at 500 ppm in the test with cotton was 70%; with sugar beet [1], 100%; in the test with corn, 0%; in the test with sorghum [2] it was 60%. Further, the pest or weed control at 500 ppm with wild oats is 0%. The plant injury at 280.212 g/ha was 95% with rape, 90% in the test on sugar beet [3], 40% with rice [4] and 90% in the test with sorghum [7]. Besides, the pest or weed control at 280.212 g/ha worked out at 0% in the test with jimsonweed; 50% in the test with pigweed; 80% in the test with velvetleaf; 20% in the test on barnyardgrass [5]; 70% in the test with yellow nutsedge [6].
Take `CCc1cccc(CC)c1NS(=O)(=O)c1nc2nc(C)cc(C)n2n1` [Compound 33]: the plant injury at 500 ppm was found to be 50% in the test with cotton, 40% in the test on sugar beet [1], 25% in the test on corn and 80% with sorghum [2]. The pest or weed control at 500 ppm with wild oats worked out at 0%. In addition, the plant injury at 280.212 g/ha was found to be 80% in the test with rape, 50% in the test with sugar beet [3], 0% with rice [4] and 0% in the test on sorghum [7]. The pest or weed control at 280.212 g/ha in the test on jimsonweed was 40%; in the test on pigweed it was 10%; with velvetleaf, 0%; in the test with barnyardgrass [5], 50%. Further, the pest or weed control at 1000 g/ha in the test with rice [8] turned out to be 97%; in the test with barnyardgrass [9], 97%; in the test on sprangletop, 90%; in the test with yellow nutsedge [10] it was 97%.
As for `Cc1cc(C)n2nc(S(=O)(=O)Nc3ccccc3[N+](=O)[O-])nc2n1` [Compound 12], the values for the plant injury at 500 ppm in the test on sugar beet [1], in the test with corn and with sorghum [2] were 95%, 10% and 75%, respectively. In the test with wild oats, the pest or weed control at 500 ppm came to 0%. Also, the results for the plant injury at 280.212 g/ha with rape, in the test on sugar beet [3] and in the test on rice [4] were 95%, 98% and 10%, respectively. In addition, the pest or weed control at 280.212 g/ha with jimsonweed is 0%; with pigweed, 60%; in the test with velvetleaf, 30%; with barnyardgrass [5], 40%; in the test with yellow nutsedge [6], 50%. For the same compound, the pest or weed control at 1000 g/ha in the test on rice [8] came out at 70%; with barnyardgrass [9] it was 97%; in the test with sprangletop it was 0%; in the test on yellow nutsedge [10], 95%.
As for `Cc1cc(C)n2nc(S(=O)(=O)Nc3ccccc3F)nc2n1` [Compound 8], the values for the plant injury at 500 ppm in the test with sugar beet [1], in the test on corn and in the test with sorghum [2] were 95%, 20% and 70%, respectively. The pest or weed control at 500 ppm in the test on wild oats amounted to 0%. In addition, the plant injury at 280.212 g/ha with rape is 100%; in the test with sugar beet [3], 90%; with rice [4], 90%. Besides, the pest or weed control at 280.212 g/ha was 100% with jimsonweed; 95% in the test with pigweed; 60% in the test with velvetleaf; 75% with barnyardgrass [5]; 75% in the test with yellow nutsedge [6]. Besides, the pest or weed control at 1000 g/ha with rice [8] stood at 97%; in the test on barnyardgrass [9] it was 99%; in the test on sprangletop, 0%; in the test on yellow nutsedge [10], 93%. For the same compound, the minimal effective concentration in test [11] amounted to 50 µg/mL.
As to `COC(=O)c1cccc(F)c1NS(=O)(=O)c1nc2nc(C)cc(C)n2n1` [Compound 26], the plant injury at 500 ppm with cotton is 100%; in the test with sugar beet [1], 100%; with corn, 80%; with sorghum [2], 90%. The pest or weed control at 500 ppm in the test with wild oats amounted to 0%. For the same compound, the plant injury at 280.212 g/ha in the test on rape was determined as 98%; in the test with sugar beet [3] it was 100%; in the test on rice [4], 100%. Besides, the pest or weed control at 280.212 g/ha is 100% in the test on jimsonweed; 100% in the test on pigweed; 95% with velvetleaf; 98% in the test with barnyardgrass [5]; 100% with yellow nutsedge [6]. For the same compound, the pest or weed control at 125 g/ha in the test on rice [8] (0.125 Kg/Ha) is 93%; in the test with barnyardgrass [9] (0.125 Kg/Ha), 90%; with sprangletop (0.125 Kg/Ha), 0%; in the test on yellow nutsedge [10] (0.125 Kg/Ha) it was 95%.
